Columns and labels:
[1] = system: Human Melanoma cancer cell, Malme-3M; test: Relative cell viability, Malme-3M (CCK-8); type: cell-based; details: 48 hours
Method: (§1) Human-derived breast cancer cell line MCF-7, human-derived lung cancer cell line A549, human-derived colorectal cancer cell line HCT-116, human pancreatic cancer cell line AsPC-1, glioblastoma cell line A172, and melanoma cell line Malme-3M were obtained from the Korean Cell Bank. gastric cancer cell line SNU-719, and bladder cancer cell line T24 were cultured in RPMI-1640 medium containing 10% FBS.
(§2) Following stabilization, the cells were harvested using Trypsin-EDTA treatment, centrifuged at 1,200 rpm for 3 minutes, the supernatant was removed, and the cells were resuspended in the same medium. They were then seeded into a 96-well plate (Costar 96-well cell culture plate, Corning) at 100 μL per well, and the conditions were adjusted as indicated in Table 5.
(§3) The cells were cultured in a 5% CO2 incubator at 37° C. for 24 hours, and after stabilization of the cells, each plate was washed with 200 μL of PBS per well and treated with 50 μL of culture medium per well.
(§4) After that, 10 μL of CCK-8 was added to each well, and the plate was incubated again at 37° C. in a 5% CO2 incubator for 2 hours.
(§5) In other words, when the survival rate of untreated cells (DMSO) is set at 100%, the relative cell survival rate in each group treated with the drug at different concentrations is indicated.

[2] = system: Human Bladder cancer cell, T24; test: Relative cell viability, T24 (CCK-8); type: cell-based; details: 48 hours
Method: as §1, §2
The cells were cultured in a 5% CO2 incubator at 37° C. for 24 hours, and after stabilization of the cells, each plate was washed with 200 μL of PBS per well and treated with 50 μL of culture medium per well. […]
as §4, §5

[3] = system: Human Head and Neck cancer, Fadu; test: Relative cell viability, Fadu (CCK-8); type: cell-based; details: relative to untreated cells
Method: Human-derived head and neck cancer cell line Fadu and osteosarcoma cell line Saos-2 were cultured in MEM medium containing 10% FBS, 100 U/mL penicillin, and 100 μg/mL streptomycin.
as §2, §3, §4, §5

[4] = system: Human multiple myeloma, KMS26; test: Relative cell viability, KMS26 (CCK-8); type: cell-based; details: KMS26, 1 μM
Method: as §4, §5

MRL/lpr mice = test: Systemic lupus erythematosus animal model (MRL/lpr); type: in vivo, MRL/MpJ-Faslpr/J mice
Excerpt: The MRL/MpJ-Faslpr/J (hereinafter referred to as “MRL/lpr”) used in this experiment is one of the representative animal models for systemic lupus erythematosus (SLE), known to produce various autoantibodies, including antinuclear antibodies, due to the lpr (lymphoproliferation) gene.
In this invention, the period up to 9 weeks of age was considered the pre-disease stage, and the period after 23 weeks of age was considered the post-disease stage, and efficacy verification experiments using this model were conducted.
Subsequently, female and male MRL/lpr mice were mated at a ratio of 2:1 in the same facility, and the female offspring were administered the compound GO15F of the present invention or vehicle at a dose of 30 mg/kg once daily via intraperitoneal injection or oral administration from the age of 10 weeks until 23 weeks of age.
Urine samples were collected once a week from each individual and used for analytical experiments.
At 23 weeks of age, necropsy was performed on each MRL/lpr mouse, and serum, kidneys, and spleens were isolated and used for analytical experiments. […]
The concentration of anti-nuclear antibodies (Anti-dsDNA Ab) was measured using the ‘Mouse Anti-dsDNA IgG ELISA Kit (Alpha Diagnostic International, Cat. #5120)’ on serum isolated at the time of necropsy in the lupus animal model.
Each mouse serum was diluted to a final concentration of 1/5000 with Working Sample Diluent (WSD) and Low NSB Sample Diluent (LNSD), followed by adding 100 μl of the diluted serum to wells coated with anti-dsDNA and incubating at room temperature for 60 minutes.
The serum separated at the time of necropsy of the lupus animal model was analyzed using the ‘IgG (Total) Mouse Uncoated ELISA Kit (Invitrogen, Cat. #88-50400)’ to measure the concentration of total IgG.
To investigate the effect of GO15F administration on changes in the ratio of immune cells in the spleen of a lupus animal model, the spleens of mice administered each compound were excised, cells were extracted, and the cells were suspended in MACS buffer (autoMACS Washing Solution, Miltenyi Biotec., Cat. #130-092-987).
For flow cytometry analysis, FACS tubes (5 mL round tubes, Falcon, Cat. #352052) were used. To prevent non-specific binding of antibodies, 1 μg/mL of anti-mouse CD16/CD32 (In VivoPlus anti-mouse CD16/CD32, BioXCell, Cat. #BP0307) for 30 minutes to prevent non-specific binding of the antibody, then centrifuge at 1,500 rpm for 5 minutes and resuspend in 100 μL of MACS buffer.
For B cells, each FACS tube was stained with 1 μg/mL of FITC-conjugated anti-B220 antibody (eBioscience™, Cat. #11-0452-81) at 4° C. for 30 minutes, then washed with 2 mL of MACS buffer.
For T cells, each FACS tube was stained with 1 μg/mL PerCP-Cy5.5-conjugated anti-CD3 (Biolegend, Cat. #100218) at 4° C. for 30 minutes.
For macrophages, each FACS tube was stained with 1 μg/mL of PE-conjugated anti-CD11b antibody (Biolegend, Cat. #101207) and PerCP-Cy5.5-conjugated anti-F4/80 (Biolegend, Cat. #123128) and incubated at 4° C. for 30 minutes. The tubes were then washed with 2 mL of MACS buffer. […]
The synthesized cDNA from each mouse was quantified to a concentration of 50 ng using a micro-quantitative spectrophotometer, and qPCR was performed for the cytokines ‘IL-2, IL-6, IL-10, IL-17, TNF-α, IFN-γ’ using a SYBR green probe (CFX96, BIO-RAD).
To investigate the effects of drug administration on renal tissue in MRL/lpr mice, the tissue was fixed in 10% neutral buffered formalin at room temperature, followed by stepwise ethanol penetration for dehydration. The tissue was then embedded in xylene and paraffin.
The blocked tissues were sectioned into 4 μm thick slices using a microtome, followed by deparaffinization, hydration, and staining.
Hematoxylin & Eosin staining, PAS staining, and Masson trichrome staining were performed for pathological evaluation of the tissues. […]

[5] = serum at necropsy, ELISA, vs control group

**Q.** With “12-[4-(2,2-dimethylmorpholin-4-yl)]dodecyl-N-(6-aminopurine-2-yl) carboxamide [Compound 11]” as the molecule, how does the “Relative cell viability (%)” value ([1]; 1 μM) read?
**A.** 44.06%

**Q.** And the “Relative cell viability (%)” value ([1]; 10 μM)?
**A.** 37.40%

**Q.** What about the “Relative cell viability (%)” value ([1]; 30 μM) of the same molecule?
**A.** 36.80%

**Q.** And the “Relative cell viability (%)” value ([1]; 50 μM)?
**A.** 38.87%

**Q.** What about the “Relative cell viability (%)” value ([2]; T24, 1 μM) of the same molecule?
**A.** 28.15%

**Q.** What about the “Relative cell viability (%)” value ([2]; T24, 10 μM) of the same molecule?
**A.** 31.17%

**Q.** What about the “Relative cell viability (%)” value ([2]; T24, 30 μM) of the same molecule?
**A.** 30.42%

**Q.** What about the “Relative cell viability (%)” value ([2]; T24, 50 μM) of the same molecule?
**A.** 29.34%

**Q.** And the “Relative cell viability (%)” value ([3]; concentration 1 μM)?
**A.** 2.08%

**Q.** What about the “Relative cell viability (%)” value ([3]; concentration 10 μM) of the same molecule?
**A.** 9.68%

**Q.** What about the “Relative cell viability (%)” value ([3]; concentration 30 μM) of the same molecule?
**A.** 8.51%

**Q.** And the “Relative cell viability (%)” value ([3]; concentration 50 μM)?
**A.** 4.78%

**Q.** And the “Relative cell viability (%)” value [4]?
**A.** 31.19%

**Q.** Which “protein concentration in urine” value (MRL/lpr mice; 30 mg/kg once daily, vs control group) does the source give for `Nc1ncccc1C(=O)NCCCCCCCCCCCCF` [Compound 57, 2-Amino-N-(12-fluoro-dodecyl)-nicotinamide] here?
**A.** significantly lower

**Q.** And the “renal pathological tissue staining (glomeruli)” value (MRL/lpr mice; H&E, PAS, Masson trichrome)?
**A.** glomerular capillary loops were well maintained

**Q.** And the “immune cells in the spleen (B cells, T cells, macrophages)” value (MRL/lpr mice; flow cytometry (B220, CD3, CD11b/F4/80))?
**A.** reduced the increased B cells, T cells, and macrophages

**Q.** And the “IgG deposition in kidney tissue” value (MRL/lpr mice; immunofluorescence staining, vs control group)?
**A.** significantly lower

**Q.** What about the “concentration of anti-dsDNA IgG in the blood” value (MRL/lpr mice; [5]) of the same molecule?
**A.** significantly lower

**Q.** What about the “total IgG concentration in the blood” value (MRL/lpr mice; [5]) of the same molecule?
**A.** significantly lower
